This is an account of results in US20260183305A1, “METHYLENE BLUE FOR USE IN THERAPY OF HEPATITIS B AND/OR HEPATITIS D INFECTION” (priority 2022, published 2026).

Series [1] has as its system Influenza N1H1 virus. The conditions noted are these: in vitro, hermetically closed box; cited from earlier work.
The conditions of series [2]: Brazilian children, long periods of time; cited from earlier work.
In series [3] the test system is HDV. The series is described as follows: MB HDV inhibition assay (HDV RNA by RT-qPCR) on HepNB2.7 cells. It is filed as cell-based, Hepatitis D Virus. The procedure:
(§1) HepG2-NTCP or HepNB2.7 cells were infected with different titers of HDV (10, 50 MOI) and treated with 2.5 or 1.25 μg/ml of MB for 5 hours.
(§2) HepG2-NTCP and HepNB2.7 cells (plated at 10×10^3 cells/well) were infected with 10 or 50 MOI of HDV using PEG (polyethylene glycol) 4% overnight as previously described (Alfaiate D, Lucifora J et al.; cf. above). MB (2.5 or 1.25 μg/ml) was added 16 hrs post HDV infection for 5 h and cells were incubated at room temperature in the dark. Three and six days post infection, RNA was extracted and HDV RNA level was monitored by RT-qPCR in order to determine HDV replication as described below. For HepNB2.7, the level of HBsAg in the supernatant were measured as described below.
(§3) Total intracellular RNA was extracted using the Nucleospin RNA Kit (Macherey-Nagel AG). cDNA was synthesized from 100 ng total RNA using Superscript II and random hexamer primers (Roche Diagnosis). Quantification of HDV was performed by qRT-PCR as described (Alfaiate D, Lucifora J et al), using the primers described by Scholtes & colleagues (Scholtes C, Icard V, Amiri M et al; “Standardized one-step real-time reverse transcription-PCR assay for universal detection and quantification of hepatitis delta virus from clinical samples in the presence of a heterologous internal-control RNA.” J Clin Microbiol 2012;50:2126-2128.) and EEF1A1 as housekeeping gene.
(§4) HepG2-NTCP or HepNB2.7 cells were infected with different titers of HDV (10, 50, 100 MOI) and treated with 2.5 or 1.25 μg/ml of MB for 5 hours. Cells were analyzed at day 3 or day 6 post-infection and HDV replication was assessed by RT-PCR. For HepNB2.7, the level of HBsAg in the supernatant were measured at both time points.
The inhibitory effect of MB on HDV replication on HepNB2.7 cells was investigated. In a first experiment cells infected with either 10 or 50 MOI were treated with MB (2.5 or 1.25 μg/ml) and HDV replication was assessed at 3 days, or 6 days, post infection.

Series [4] relates to SARS-COV-2. To be noted: in vitro, hermetically closed box; cited from earlier work.
The conditions of series [5]: transplacental exposure, mouse; cited from earlier work.
Series [6] deals with HDV. As to the kind of experiment: MB HDV inhibition assay (HDV RNA by RT-qPCR) on HepG2-NTCP cells. The format is cell-based, Hepatitis D Virus. The conditions noted are these: MB 2.5 or 1.25 μg/mL; for HDV RNA concentration: HepG2-NTCP. Here is the method:
as §1, §2, §3, §4
The inhibitory effect of MB on HDV replication on HepG2-NTCP cells was investigated. Cells infected with either 10 or 50 MOI of virus were treated with MB (2.5 or 1.25 μg/ml) and HDV replication was assessed at 3 days (A) or 6 days (B) post infection.

In series [7] the test system is HBV surface antigen (HBsAg). As to the kind of experiment: HBsAg measurement by ELISA in supernatant of HDV infected HepNB2.7 cells. The format is cell-based, Hepatitis B Virus. The procedure:
as §2
For HepNB2.7, the level of HBsAg in the supernatant were measured at both time points by ELISA (Enzyme-Linked Immosorbent Assay, ABBOTT PRISM® HBsAg) according to the protocol of the manufacturer.
as §4
In a second experiment the secretion of the HBV surface antigen (HBsAg) was measured in the supernatant of cells infected with 10, 50 or 100 MOI and treated with MB (2.5 or 1.25 μg/ml).

The conditions of series [8]: after oral administration; cited from earlier work.
The conditions of series [9]: 5 mg/ml solution for injection; cited from earlier work.
Series [10] concerns HepNB2.7 cells. As to the kind of experiment: MTT cell viability assay, cytotoxicity of MB on HepNB2.7. The format is cell-based. To be noted: HepNB2.7, MTT.

Entries after “also recorded” stand apart in the source; their conditions may differ.

With `CN(C)c1ccc2nc3ccc(N(C)C)cc3[s+]c2c1.[Cl-]` [MB, [7-(dimethylamino)phenothiazin-3-ylidene]-dimethylazanium, chloride], the “antiviral efficacy in the total dark” value in [1] and in series [4] was “strong antiviral efficacy” throughout. Further, the “dose tolerated very well” value in [2] is recorded as 20-50 mg/kg per day. For the same molecule, the HDV replication signal entry in series [3] (HepNB2.7, 10 MOI, day 3 and 6) is given as “weak signal”. For the same molecule, in [3] (HepNB2.7, 50 MOI, day 6 post infection, MB 2.5 or 1.25 μg/ml), the “effect of MB on viral reproduction (HDV replication)” value was “dose related effect”. Besides, the “viral markers under long-term treatment (extrapolated)” value in [3] (long-term treatment (weeks instead of days), cell lines, no data shown) is listed as “complete disappearance of viral markers”. Also, in series [5], the teratogenicity result is “teratogenic”. Besides, the “HDV RNA concentration” value in [6] (10 MOI) was “too low to distinguish the antiviral impact of MB”; in [6] (50 MOI, 3 and 6 days post infection), “clear dose response relationship”. Besides, the “antiviral effect of MB against HDV infected HepG2-NTCP cells” value in series [6] (physiological drug concentrations) is on record as “significant antiviral effect”. Also, in [7] (HepNB2.7 infected with 10, 50 or 100 MOI HDV, MB 2.5 or 1.25 μg/ml, all conditions tested), the “secretion of the HBV surface antigen (HBsAg) in the supernatant” value is recorded as “diminished secretion; also recorded: clear-cut dose/response relationship”. Further, the “antiviral effect of MB over time” value in [7] (results on day 3 and 6) is given as “accumulates over time”. The bioavailability in series [8] is reported as 72%. Further, the elimination half-life in series [8] was 18 h. The “compatibility with 0.9% saline solution” value in [9] was “not compatible”. Also, the “compatibility with 5% glucose or 5% dextrose solution” value in series [9] is recorded as “compatible”. For the same molecule, the “long-term cytotoxic effect (percentage of viability)” value in series [10] (3 days after incubation with different concentrations of MB) was “significant toxicity”. The “cytotoxic effect of MB in the presence of light as compared to dark” value in [10] (dark vs photoactivated under visible light, 3 days after incubation) is “not significantly enhanced”.
